Consider eight molecules from patent US9631041B2, “PH-sensitive compositions for delivery of beta lapachone and methods of use” (The Board of Regents of the University of Texas System, priority 2010, dated 2017).

The nature of data set [1]: Prodrug hydrolysis / conversion into β-lap by HPLC at different pH. It counts as physicochemical. The settings on record: for pH sensitivity of hydrolysis: hydrolysis study at neutral pH and acidic pH; for half-life at 5 μmol/mL: acetonitrile/buffered solution (30:70, v/v). The protocol:
The HPLC system consisted of a quaternary pump, a vacuum degasser, an autosampler, a C18 column (4.6 mm×250 mm, Agilent, CA) and UV detector at 254 nm (Perkin Elmer, MA, USA). The mobile phase was acetonitrile/water (60:40) and a flow rate of 1.0 mL/min was used.

The test system of the next data set is A549 cells. In words: Cytotoxicity assay, long-term relative survival by DNA content. Type of data set: cell-based, human. The protocol:
Long-term, relative survival was assessed based on DNA content as described (Pink, J. J., Planchon, S. M., Tagliarino, C., Varnes, M. E., Siegel, D., and Boothman, D. A. (2000) NAD(P)H:Quinone oxidoreductase activity is the principal determinant of beta-lapachone cytotoxicity. J. Biol. Chem. 275, 5416-24). Briefly, A549 cells were seeded at 5×10^3/well in 48-well dishes a day before experiments. Cells were then mock-treated or exposed to various doses of β-lap or β-lap prodrug (6) conjugated micelles for preferred time in the presence or absence of dicoumoral (40 μM) as indicated. Subsequently, cells were replenished with drug-free medium and allowed to grow for 5-7 days until control cells reached ˜100% confluence. DNA content was determined by Hoechst 33258 staining and fluorescence detection using a plate reader (Perkin-Elmer, Boston, Mass.). Results were graphed as means±SE from sixtuplicate. Independent experiments were repeated at least three times. DIC is a specific NQO1 inhibitor and used to block β-Lap induced cytotoxicity.

The target of another data set is NQO1 (Homo sapiens, UniProt P15559). The settings on record: upon NQO1 bioactivation, futile cycle; cited from earlier work.
The conditions of data set [2]: free drug; cited from earlier work.
The conditions of data set [3]: inclusion complex with hydroxylpropyl β-cyclodextrin; cited from earlier work.

Each structure is given as a SMILES string. In brackets after ≈: the same amount, converted by molar mass. Where two headings read alike, the source gives them in different places.

Chain of NQO1 (P15559 whole entry): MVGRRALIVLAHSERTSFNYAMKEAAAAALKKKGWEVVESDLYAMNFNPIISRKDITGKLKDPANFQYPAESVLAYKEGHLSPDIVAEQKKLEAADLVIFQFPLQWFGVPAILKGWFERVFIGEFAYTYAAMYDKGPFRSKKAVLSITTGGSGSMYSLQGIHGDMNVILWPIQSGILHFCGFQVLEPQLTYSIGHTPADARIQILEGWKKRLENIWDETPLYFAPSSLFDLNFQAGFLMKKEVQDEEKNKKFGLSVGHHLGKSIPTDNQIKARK

With `CC1(C)CCC2=C(O1)c1ccccc1[C@]1(OC[C@@](C)(CO)CO1)C2=O` [prodrug (2), (2′r,5′r)-5′-(hydroxymethyl)-2,2,5′-trimethyl-3,4-dihydrospiro[benzo[h]chromene-6,2′-[1,3]dioxan]-5(2H)-one], the “pH sensitivity of hydrolysis” value in data set [1] is listed as “not pH-sensitive”.
Consider `CC1(C)CCC2=C(O1)c1ccccc1/C(=N\c1ccc(N3C(=O)C=CC3=O)cc1)C2=O` [prodrug (6), (E)-1-(4-(2,2-dimethyl-5-oxo-3,4-dihydro-2H-benzo[h]chromen-6(5H)-ylideneamino)phenyl)-1H-pyrrole-2,5-dione], for which the half-life at 5 μmol/mL in data set [1] (pH 5, pH 5.0, room temperature, read-out: half-life of conversion into β-lap, t1/2 (pH 5.0) (converted)) was 1.1 h; in data set [1] (pH 7.4, pH 7.4, read-out: half-life for hydrolysis, t1/2 (pH 7.4)), more than 90 h. The “pH sensitivity of hydrolysis” value in data set [1] is “inspiring pH sensitivity both at neutral and at acidic conditions”. In addition, the “prodrug converted into β-Lap” value is listed as “more than 50%” in data set [1] (pH 5.0, after 1.5 hr); “about 30%” in data set [1] (pH 6.5, after 24 hrs); approximately 3.3% in data set [1] (pH 7.4, after 24 hrs). In addition, the prodrug hydrolyzed result in data set [1] (pH 5.0, after 10 hrs) is given as “all prodrug (6) was hydrolyzed”. In addition, the “β-Lap released from prodrug” value in data set [1] (pH 5.0 buffer, 5 mins) is “only a trace”.
Regarding `CC1(C)CCC2=C(O1)c1ccccc1[C@]1(OC[C@](C)(CO)CO1)C2=O` [prodrug (3), (2′s,5′s)-5′-(hydroxymethyl)-2,2,5′-trimethyl-3,4-dihydrospiro[benzo[h]chromene-6,2′-[1,3]dioxan]-5(2H)-one], the “pH sensitivity of hydrolysis” value in data set [1] is on record as “not pH-sensitive”.
On the same count and under the same terms, next, `CC(=O)N/N=C1\C(=O)C2=C(OC(C)(C)CC2)c2ccccc21` [prodrug (1), (Z)—N′-(2,2-dimethyl-5-oxo-3,4-dihydro-2H-benzo[h]chromen-6(5H)-ylidene)acetohydrazide]: “not pH-sensitive”.
As for `Nc1ccc(N2C(=O)C=CC2=O)cc1` [linker, N-(4-Aminophenyl)maleimide], the toxicity result in the data set with A549 cells (A549, treatment up to 24 h) is given as “No toxicity”.
With `Cc1cc2nc3c(oc-2cc1=O)c1c(c2ccccc23)OC(C)(C)CC1` [(5), 3,3,11-trimethyl-2,3-dihydrobenzo[a]pyrano[2,3-c]phenoxazin-12(1H)-one], the “pH sensitivity of hydrolysis” value in data set [1] is “resisted acid catalyzed hydrolysis”.
Usually aqueous solubility stands for the dissolved amount per volume that the medium holds. With `CC1(C)CCC2=C(O1)c1ccccc1C(=O)C2=O` [β-lap, β-Lapachone], the “moles of H2O2 and other ROS produced per mole of β-lap” value at NQO1 is 120 mol. Further, the aqueous solubility in data set [2] is 38 µg/mL (≈ 157 µM). In addition, in the data set with A549 cells (A549, dicoumarol 40 μM), the “cytotoxicity in the presence of dicoumarol (NQO1 inhibitor)” value was “blocked”. In addition, in the data set with A549 cells (A549 cells, within 2 hours), the “concentration sufficient to reach maximal cytotoxicity” value is 5 µM. Besides, in data set [3], the binding constant was 1100 M⁻¹.
As for `CC1(C)CCc2c(c3ccccc3c3nc(CCCCO)oc23)O1` [(4), 4-(6,6-dimethyl-5,6-dihydro-4H-benzo[7,8]chromeno[6,5-d]oxazol-2-yl)butan-1-ol], the “pH sensitivity of hydrolysis” value in data set [1] is “resisted acid catalyzed hydrolysis”.
